pIC50: −log10 of the molar value.
Tested on: A375 multi-cell spheroids with HUVEC/MSC, viability
Experiment: Anticancer human tumor A375 cell line growth inhibition [GQUAD];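 also: spheroids exposed to compounds for seven days before readout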
Conditions: for pIC50: curve of first compound; for viability, T/C: stronger effect = lower value
Text: DNA G-quadruplex Stabilizer Agents in Combinations in Complex Spheroids
A high-throughput screen of multi-cell type tumor spheroids was designed to identify active combinations of DNA G-quadruplex stabilizer agents and targeted small molecules. Complex spheroids include a stromal component modeled by human endothelial cells (HUVEC) and fibroblasts modeled by human mesenchymal stem cells (MSCs). The concentration ranges selected for each drug and investigational agent were based upon clinically achievable concentrations if the clinical Cmax of the agent was known.
Compounds. The drugs and investigational agents: pidnarulex (CX-5461; NSC782164), APTO-253 (NSC789042), BRACO-19 (NSC847499), peposertib (NSC802822), ceralasertib (NSC780249), elimusertib (NSC800525), camonsertib (NSC841442), AZD-1390 (NSC803789), olaparib (NSC753686), talazoparib (NSC767125), ART-558 (NSC835418), sotorasib (NSC818433), MRTX-1133 (NSC836407), SN-38 (NSC673596), topotecan (NSC609699), etoposide (NSC141540), doxorubicin (NSC123127), gemcitabine (NSC613327), 5-fluorouracil (NSC19893), paclitaxel (NSC125973), vemurafenib (NSC761431), panobinostat (NSC761190), R-306465 (JNJ-16241199; NSC773264), adavosertib (NSC754352), TP-3654 (NSC805149), carboplatin (NSC241240), KSQ-4279 (NSC840948), and staurosporine (NSC755774) were obtained from the National Cancer Institute (NCI) Developmental Therapeutics Program Chemical Repository (34). The FDA-approved anticancer drug set is available from the NCI Developmental Therapeutics Program. […] The stock solutions were prepared in dimethyl sulfoxide (DMSO, Sigma-Aldrich, St. Louis, MO, cat. D2650) at 800-fold the tested concentration and stored at -70 degrees C prior to their use. All drugs and investigational agents were tested over a range starting from a high concentration at or near the clinical Cmax and decreasing in half-log increments. If the clinical Cmax for an agent had not been determined, the highest concentration tested was 10 microM.
2.3 Cell Culture. All cells were maintained in an incubator at 37 degrees C and 5% CO2 with 95% humidity. The PDC lines were cultured according to standard operating procedures established by the NCI PDMR. All PDCs were thawed and cultured in Matrigel-coated flasks prepared with a working solution of 1X Ham's F-12 nutrient mix, without supplementation (Invitrogen, cat. 11765054), 100 U/mL penicillin-streptomycin (Invitrogen, cat. 15140122), and 2.5% Matrigel (Corning Inc., cat. 354248) for the first three passages. The 857933-349-R-J2-PDC line was cultured in 6C/Colon 1B media, which includes advanced DMEM/F-12 (Thermo Fisher Scientific, cat. 12634028), 10 mM HEPES (Thermo Fisher Scientific, cat. 15630080), 1X GlutaMAX supplement (Thermo Fisher Scientific, cat. 35050061), 0.1 mg/mL primocin (InvivoGen, cat. ant-pm-2), 10% defined fetal bovine serum, heat inactivated (HyClone Laboratories Inc., cat. SH30070.03HI), 50% L-WRN conditioned media (ATCC, cat. CRL-3276), 1.25 mM N-Acetyl-L-cysteine (Sigma-Aldrich, cat. A9165), 10 mM nicotinamide (Sigma-Aldrich, cat. N0636), 1X B-27 supplement (Thermo Fisher Scientific, cat. 17504044), 1X N-2 supplement (Thermo Fisher Scientific, cat. 17502048), 10 microM Y-27632 dihydrochloride (Tocris Bioscience, cat. 1254), and 50 ng/mL human EGF recombinant protein (Thermo Fisher Scientific, cat. PHG0311). The 485176-168-R4-J1-PDC line was cultured in Panc media, which includes all 6C/Colon 1B media components plus 100 ng/mL human FGF-10 (Thermo Fisher Scientific, cat. 100-26), 500 nM SB-431542 (Selleckchem, cat. S1067), and gastrin (Tocris, cat. 3006).
[…]

[1] = second compound 0.0316 µM, first compound 0.0316 µM
[2] = second compound 0.0316 µM, first compound 0.1 µM
[3] = second compound 0.0316 µM, first compound 0.316 µM
[4] = second compound 0.0316 µM, first compound 1 µM
[5] = second compound 0.0316 µM, first compound 3.16 µM
[6] = second compound 0.0316 µM, first compound 10 µM
[7] = second compound 0.1 µM, first compound 0.0316 µM
[8] = second compound 0.1 µM, first compound 0.1 µM
[9] = second compound 0.1 µM, first compound 0.316 µM
[10] = second compound 0.1 µM, first compound 1 µM
[11] = second compound 0.1 µM, first compound 3.16 µM
[12] = second compound 0.1 µM, first compound 10 µM
[13] = second compound 0.316 µM, first compound 0.0316 µM
[14] = second compound 0.316 µM, first compound 0.1 µM
[15] = second compound 0.316 µM, first compound 0.316 µM
[16] = second compound 0.316 µM, first compound 1 µM
[17] = second compound 0.316 µM, first compound 3.16 µM
[18] = second compound 0.316 µM, first compound 10 µM
[19] = second compound 1 µM, first compound 0.0316 µM
[20] = second compound 1 µM, first compound 0.1 µM
[21] = second compound 1 µM, first compound 0.316 µM
[22] = second compound 1 µM, first compound 1 µM
[23] = second compound 1 µM, first compound 3.16 µM
[24] = second compound 1 µM, first compound 10 µM
[25] = second compound 3.16 µM, first compound 0.0316 µM
[26] = second compound 3.16 µM, first compound 0.1 µM
[27] = second compound 3.16 µM, first compound 0.316 µM
[28] = second compound 3.16 µM, first compound 1 µM
[29] = second compound 3.16 µM, first compound 3.16 µM
[30] = second compound 3.16 µM, first compound 10 µM
[31] = second compound 10 µM, first compound 0.0316 µM
[32] = second compound 10 µM, first compound 0.1 µM
[33] = second compound 10 µM, first compound 0.316 µM
[34] = second compound 10 µM, first compound 1 µM
[35] = second compound 10 µM, first compound 3.16 µM
[36] = second compound 10 µM, first compound 10 µM

`CC1COCCN1c1cc(-c2ccnn2C)c2ccnc(-c3ccn[nH]3)c2n1` (stereo unspecified) + CN(C)c1ccc(Nc2c3ccc(NC(=O)CCN4CCCC4)cc3nc3cc(NC(=O)CCN4CCCC4)ccc23)cc1 showed a pIC50 (second compound 0.0316 µM) of 6.51, a pIC50 (second compound 0.1 µM) of 6.52 and a pIC50 (second compound 0.316 µM) of 6.46. The pIC50 (second compound 1 µM) was 6.47, the pIC50 (second compound 3.16 µM) was 6.50 and the pIC50 (second compound 10 µM) was 6.55. For the same compound, the viability, T/C [1] was 105%, the viability, T/C [2] was 78.3% and the viability, T/C [3] was 50.8%. The viability, T/C [4] was 25.8%, the viability, T/C [5] was 10% and the viability, T/C [6] was 9.41%. The viability, T/C [7] was 114%, the viability, T/C [8] was 82% and the viability, T/C [9] was 48.8%. For the same compound, the viability, T/C [10] was 26.6%, the viability, T/C [11] was 10.1% and the viability, T/C [12] was 9.57%. It also gave a viability, T/C [13] of 111%, a viability, T/C [14] of 82.6% and a viability, T/C [15] of 53.6%. The viability, T/C [16] was 26.7%, the viability, T/C [17] was 11.1% and the viability, T/C [18] was 9.6%. The viability, T/C [19] was 108%, the viability, T/C [20] was 82.9% and the viability, T/C [21] was 51.4%. For the same compound, the viability, T/C [22] was 27.5%, the viability, T/C [23] was 11.2% and the viability, T/C [24] was 8.68%. The viability, T/C [25] was 110%, the viability, T/C [26] was 83.9% and the viability, T/C [27] was 48.9%. For the same compound, the viability, T/C [28] was 28.2%, the viability, T/C [29] was 10.8% and the viability, T/C [30] was 10.2%. For the same compound, the viability, T/C [31] was 97.7%, the viability, T/C [32] was 74.2% and the viability, T/C [33] was 47.3%. It also gave a viability, T/C [34] of 27.6%, a viability, T/C [35] of 11.1% and a viability, T/C [36] of 9.62%.
`CC1COCCN1c1cc(C2(S(C)(=N)=O)CC2)nc(-c2ccnc3[nH]ccc23)n1` (stereo unspecified) + CN(C)c1ccc(Nc2c3ccc(NC(=O)CCN4CCCC4)cc3nc3cc(NC(=O)CCN4CCCC4)ccc23)cc1 gave a pIC50 (second compound 0.0316 µM) of 5.22, a pIC50 (second compound 0.1 µM) of 5.23 and a pIC50 (second compound 0.316 µM) of 5.20. For the same compound, the pIC50 (second compound 1 µM) was 5.14, the pIC50 (second compound 3.16 µM) was 5.13 and the pIC50 (second compound 10 µM) was 5.19. The viability, T/C [1] was 102%, the viability, T/C [2] was 105% and the viability, T/C [3] was 102%. For the same compound, the viability, T/C [4] was 108%, the viability, T/C [5] was 68.5% and the viability, T/C [6] was 36%. It also gave a viability, T/C [7] of 108%, a viability, T/C [8] of 104% and a viability, T/C [9] of 106%. The viability, T/C [10] was 102%, the viability, T/C [11] was 67.8% and the viability, T/C [12] was 34.5%. The viability, T/C [13] was 105%, the viability, T/C [14] was 101% and the viability, T/C [15] was 107%. For the same compound, the viability, T/C [16] was 107%, the viability, T/C [17] was 71.9% and the viability, T/C [18] was 35%. It also gave a viability, T/C [19] of 106%, a viability, T/C [20] of 95.7% and a viability, T/C [21] of 114%. For the same compound, the viability, T/C [22] was 108%, the viability, T/C [23] was 68% and the viability, T/C [24] was 43.2%. It also gave a viability, T/C [25] of 118%, a viability, T/C [26] of 95.8% and a viability, T/C [27] of 97.2%. For the same compound, the viability, T/C [28] was 108%, the viability, T/C [29] was 78.3% and the viability, T/C [30] was 40.3%. For the same compound, the viability, T/C [31] was 95.5%, the viability, T/C [32] was 98.3% and the viability, T/C [33] was 101%. The viability, T/C [34] was 96.8%, the viability, T/C [35] was 64.8% and the viability, T/C [36] was 40.6%.
In the case of `COc1ccc([C@@H](O)c2cc(-c3ncnc4cc(N5CCOCC5)ccc34)c(F)cc2Cl)nn1` + CN(C)c1ccc(Nc2c3ccc(NC(=O)CCN4CCCC4)cc3nc3cc(NC(=O)CCN4CCCC4)ccc23)cc1, the pIC50 (second compound 0.0316 µM) was < 5.00, the pIC50 (second compound 0.1 µM) was < 5.00 and the pIC50 (second compound 0.316 µM) was < 5.00. The pIC50 (second compound 1 µM) was < 5.00, the pIC50 (second compound 3.16 µM) was < 5.00 and the pIC50 (second compound 10 µM) was < 5.00. For the same compound, the viability, T/C [1] was 106%, the viability, T/C [2] was 103% and the viability, T/C [3] was 106%. It also gave a viability, T/C [4] of 105%, a viability, T/C [5] of 91.9% and a viability, T/C [6] of 74.5%. For the same compound, the viability, T/C [7] was 107%, the viability, T/C [8] was 111% and the viability, T/C [9] was 100%. The viability, T/C [10] was 108%, the viability, T/C [11] was 95.6% and the viability, T/C [12] was 71.5%. It also gave a viability, T/C [13] of 109%, a viability, T/C [14] of 101% and a viability, T/C [15] of 104%. The viability, T/C [16] was 99.7%, the viability, T/C [17] was 93% and the viability, T/C [18] was 70.7%. It also gave a viability, T/C [19] of 103%, a viability, T/C [20] of 101% and a viability, T/C [21] of 108%. It also gave a viability, T/C [22] of 111%, a viability, T/C [23] of 97.6% and a viability, T/C [24] of 78.9%. The viability, T/C [25] was 104%, the viability, T/C [26] was 99.3% and the viability, T/C [27] was 106%. The viability, T/C [28] was 102%, the viability, T/C [29] was 90.5% and the viability, T/C [30] was 83.3%. It also gave a viability, T/C [31] of 110%, a viability, T/C [32] of 93.6% and a viability, T/C [33] of 98.5%. The viability, T/C [34] was 97.7%, the viability, T/C [35] was 77% and the viability, T/C [36] was 64.2%.

From PubChem BioAssay AID2060485 (Molecular Pharmacology Branch, DTP, NCI, 2025)
